Results on six molecules are retold here after US20050112742A1, “High temperature and alkaline stable catalase” (priority 2003, published 2005).

Data set [1] deals with T1, Thermus brockianus catalase (SEQ ID NO:2, SEQ ID NO:5) (Thermus brockianus, UniProt A0ABM7XHT8).
T1 construct: in solution and immobilized on Eupergit C
T1 sequence (A0ABM7XHT8 6-291): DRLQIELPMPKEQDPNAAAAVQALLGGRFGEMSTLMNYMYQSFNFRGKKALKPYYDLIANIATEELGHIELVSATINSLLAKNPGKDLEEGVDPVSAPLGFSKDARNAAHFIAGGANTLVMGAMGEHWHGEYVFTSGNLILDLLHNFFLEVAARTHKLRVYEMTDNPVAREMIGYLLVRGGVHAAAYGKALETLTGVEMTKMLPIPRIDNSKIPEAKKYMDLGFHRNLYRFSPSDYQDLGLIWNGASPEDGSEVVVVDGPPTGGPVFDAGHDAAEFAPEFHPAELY
Description: Peroxidase activity with peroxidase substrates. The format is biochemical. To be noted: hydrogen peroxide 1 mM, 20 mM Tris pH 8.0, 70° C. How it is done: The reactions were monitored spectrophotometrically at 460 and 420 nm, respectively. The substrates were dissolved in 20 mM Tris buffer, pH 8.0, and the assays were conducted at 70° C.

Another data set deals with T. brockianus catalase. The format is biochemical, Thermus brockianus.
Data set [2] has as its system Archaeoglobus fulgidus recombinant catalase-peroxidase (putative perA gene). To be noted: in words; cited from earlier work.
In data set [3] the target is T1, Thermus brockianus catalase (SEQ ID NO:2, SEQ ID NO:5). Description: Michaelis-Menten kinetics of hydrogen peroxide decomposition (240 nm). The format is biochemical. To be noted: for Vmax: 20 mM Tris pH 8, 70° C. How it is done: The buffer pH was adjusted to 8 at 70° C.
The constants were calculated by fitting the Michaelis-Menten equation to a plot of reaction velocity versus substrate concentration using nonlinear analysis (using GraFit Version 4, Erithacus Software Limited, Horley Surrey, U.K.). […] The enzyme was assayed as in Example I, except that it was preincubated with the inhibitor for 5 min prior to assay.
The turnover number was calculated assuming four active centers per catalase molecule.

A further data set addresses Beef liver catalase (Bos taurus, UniProt P00432). To be noted: Non-Immobilized Enzyme; inhibition observed at substrate concentrations above.
For data set [4], the system named is Thermoascus aurantiacus catalase. To be noted: cited from earlier work.
In data set [5] the test system is Thermoleophilum album catalase. To be noted: cited from earlier work.
Data set [6] concerns Bacillus sp. catalase or catalase-peroxidase. To be noted: cited from earlier work.
In data set [7] the test system is E. coli catalase or catalase-peroxidase. To be noted: Table 3; cited from earlier work.
The subject of data set [8] is R. capsulatus catalase or catalase-peroxidase. To be noted: Table 3; cited from earlier work.
Data set [9] relates to N. crassa catalase or catalase-peroxidase. To be noted: cited from earlier work.
Data set [10] concerns Vitreoscilla sp. catalase or catalase-peroxidase. To be noted: Table 3; cited from earlier work.
The test system of data set [11] is M. tuberculosis catalase or catalase-peroxidase. To be noted: cited from earlier work.
Data set [12] relates to A. nidulans catalase or catalase-peroxidase. To be noted: cited from earlier work.
Substrate in data set [13]: OO
Description: purified protein, by the assay type.

Data set [14] can be described thus: Stability of immobilized catalase. The format is physicochemical. To be noted: 70° C. How it is done: For beef liver catalase, the stability at 70° C. and pH 10 increased from no stability to being stable for 5 minutes. The A. niger catalase was stable for at least 6 hours under these conditions. The stability of immobilized T. brockianus catalase is assayed as done with immobilized beef liver catalase.

Where [15] appears, read: H2O2 concentration showing substrate inhibition.

“Also recorded” adds a separate entry of the source.

Sequence of Beef liver catalase (P00432 whole entry): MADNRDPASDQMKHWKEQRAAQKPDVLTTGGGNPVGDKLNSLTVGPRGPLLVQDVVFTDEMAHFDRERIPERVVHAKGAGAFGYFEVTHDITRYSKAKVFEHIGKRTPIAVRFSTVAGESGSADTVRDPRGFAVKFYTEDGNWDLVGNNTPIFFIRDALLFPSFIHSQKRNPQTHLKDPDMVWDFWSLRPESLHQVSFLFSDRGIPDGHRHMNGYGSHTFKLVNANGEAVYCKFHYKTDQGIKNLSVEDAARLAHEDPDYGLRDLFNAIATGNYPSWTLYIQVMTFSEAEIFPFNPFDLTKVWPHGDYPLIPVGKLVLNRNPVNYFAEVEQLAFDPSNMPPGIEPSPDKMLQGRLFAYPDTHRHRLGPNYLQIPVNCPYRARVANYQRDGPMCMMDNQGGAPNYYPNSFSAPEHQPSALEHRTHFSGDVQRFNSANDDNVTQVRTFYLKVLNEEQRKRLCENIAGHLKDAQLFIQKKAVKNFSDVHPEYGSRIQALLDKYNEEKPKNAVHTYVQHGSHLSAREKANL

With `CCn1c(=NN=c2sc3cc(S(=O)(=O)O)ccc3n2CC)sc2cc(S(=O)(=O)O)ccc21` [2,2′-azino-bis(3-ethylbenzothiazoline-6-sulfonic acid)], the peroxidase activity result in [1] (substrate 10 mM, 420 nm) was “absence of peroxidase activity”.

`Nc1nc[nH]n1` [3-amino-1,2,4-triazole]: in the data set with T. brockianus catalase, the “inhibition of T. brockianus catalase” value was “completely inhibited” and the “inhibition of T. brockianus catalase (in words, no concentration given)” value is given as “inhibition”. For the same molecule, the “inhibition by 3-amino-1,2,4-triazole” value in data set [2] is recorded as “inhibited”.

For the molecule `OO` [hydrogen peroxide], the results for the Vmax in [3] (hydrogen peroxide 3 to 450 mM), in data set [3] (Table 3) and in [5] (Table 3) were 20.3 mM/min·mg protein, 20.3 mM/min/mg and 2.3 mM/min/mg, respectively. Also, the “turnover number (kcat)” value in [3] (calculated assuming four active centers per catalase molecule, pH 8, 70° C.) is 6000 s⁻¹. Further, the “H2O2 Inhibition” value in data set [3] (no inhibition observed for H2O2 concentrations up to 450 mM, pH 8, 70° C.) is listed as “no apparent substrate inhibition/inactivation; also recorded: not inhibited; also recorded: None^c”; in data set [4] (setting [15]), 60 mM; in data set [5] (setting [15]), 20 mM; in data set [6] (setting [15]), 30 mM; in data set [9] (no inhibition observed for H2O2 concentrations up to 200 mM), “None^b”; in data set [12] (setting [15]) it was 10 mM. Besides, on Beef liver catalase, the “substrate inhibition concentration (footnote b)” value was “^bApproximated value - inhibition observed at substrate concentrations above 100 mM”. For the same molecule, the Kcat was 107000 s⁻¹ in data set [4] (Table 3); 16300 s⁻¹ in data set [7]; 26700 s⁻¹ in data set [10]; 10100 s⁻¹ in data set [11]; 7170 s⁻¹ in data set [12] (Table 3). Moreover, the Km in data set [4] (Table 3) was 48 mM; in data set [5] (Table 3), 15 mM; in data set [6] (Table 3), 6.8 mM; in [7] it was 3.9 mM; in data set [8] it was 4.2 mM; in data set [9] (Table 3) it was 25 mM. Moreover, the Km in data set [10] is 16 mM; in data set [11] (Table 3), 5.2 mM; in data set [12] (Table 3) it was 4.3 mM.

As for `COc1cc(-c2ccc(N)c(OC)c2)ccc1N` [o-dianisidine], the peroxidase activity entry in [1] (substrate 0.5 mM, 460 nm) was “absence of peroxidase activity”.

B1: Thermus brockianus catalase (SEQ ID NO:2, SEQ ID NO:5) (Thermus brockianus) (protein)
chain: DRLQIELPMPKEQDPNAAAAVQALLGGRFGEMSTLMNYMYQSFNFRGKKALKPYYDLIANIATEELGHIELVSATINSLLAKNPGKDLEEGVDPVSAPLGFSKDARNAAHFIAGGANTLVMGAMGEHWHGEYVFTSGNLILDLLHNFFLEVAARTHKLRVYEMTDNPVAREMIGYLLVRGGVHAAAYGKALETLTGVEMTKMLPIPRIDNSKIPEAKKYMDLGFHRNLYRFSPSDYQDLGLIWNGASPEDGSEVVVVDGPPTGGPVFDAGHDAAEFAPEFHPAELY
Take B1: the Km stood at 35.5 mM in data set [13] (other: 20 mM Tris pH 8, 70° C., hydrogen peroxide 3 to 450 mM, pH 8.0, 70.0 °C); 17 mM in [13] (other: Immobilized Enzyme, packed column, PBS pH 7.2, 20 mL/min, optimum temperature, pH 7.2); 35 mM in data set [13] (other: Non-Immobilized Enzyme, optimum temperature and pH).

B2: Beef Liver: beef liver catalase, commercial comparison enzyme (protein, UniProt P00432 2-527, looked up)
Catalase: ADNRDPASDQMKHWKEQRAAQKPDVLTTGGGNPVGDKLNSLTVGPRGPLLVQDVVFTDEMAHFDRERIPERVVHAKGAGAFGYFEVTHDITRYSKAKVFEHIGKRTPIAVRFSTVAGESGSADTVRDPRGFAVKFYTEDGNWDLVGNNTPIFFIRDALLFPSFIHSQKRNPQTHLKDPDMVWDFWSLRPESLHQVSFLFSDRGIPDGHRHMNGYGSHTFKLVNANGEAVYCKFHYKTDQGIKNLSVEDAARLAHEDPDYGLRDLFNAIATGNYPSWTLYIQVMTFSEAEIFPFNPFDLTKVWPHGDYPLIPVGKLVLNRNPVNYFAEVEQLAFDPSNMPPGIEPSPDKMLQGRLFAYPDTHRHRLGPNYLQIPVNCPYRARVANYQRDGPMCMMDNQGGAPNYYPNSFSAPEHQPSALEHRTHFSGDVQRFNSANDDNVTQVRTFYLKVLNEEQRKRLCENIAGHLKDAQLFIQKKAVKNFSDVHPEYGSRIQALLDKYNEEKPKNAVHTYVQHGSHLSAREKANL
B2: the “stability, not immobilized” value in data set [14] (pH 10, before immobilization) is recorded as “no stability”. For the same molecule, the “time stable, immobilized enzyme” value in [14] (pH 10, immobilized) was 5 min.

The term Km denotes the concentration of substrate that gives half-maximal velocity.
